Results as given in article PMC10686834, “Targeting myeloid chemotaxis to reverse prostate cancer therapy resistance” (Nature, 2023).

Tests used:
[1] = Pharmacokinetics of AZD5069 in plasma, non-compartmental analysis (AUClast, Cmax); assay type: in vivo, human
Method: Specific pharmacokinetic collection time points are listed in the study protocol. Pharmacokinetic parameters were calculated using non-compartmental analysis (Phoenix v.8.1, Certara). Fresh tumour needle core biopsies from matched disease sites (lymph node, bone and soft tissue) were collected at baseline (within 1 week of treatment commencement) and approximately 2 weeks after starting AZD5069 in patients when this was deemed safe and feasible. Tumour biopsies were obtained from 18 patients under computerized tomography or ultrasound guidance by an experienced interventional radiologist (N.T.). […] One patient had only a baseline tumour biopsy. Two patients underwent on-treatment biopsies after 4 weeks. Immediately after biopsy, tumour samples were immersed in 10% neutral-buffered formalin for 24 hours. Samples were processed through paraffin wax for histologic examination. Three 3 μm sections of formalin-fixed paraffin-embedded (FFPE) tumour biopsy were stained with haematoxylin and eosin to confirm the presence of tumour by a pathologist (B.G.). Tumour samples with insufficient tumour content or significant crushed artefact were excluded from analyses (B.G.). Baseline FFPE samples were analysed by IHC, and pre- and post-treatment FFPE biopsies were analysed by IF and targeted RNA profiling using HTG EdgeSeq. All samples that failed initial analyses by IF were restained at least once. A list of tumour samples and their methods of analyses are detailed in Supplementary Table 4.

[2] = design: method as in AZD5069 Investigator Brochure (IB); conditions: human mass balance study NCT01332903; ref AZD5069 Investigator Brochure (IB); cited from earlier work
[3] = tested on: monkey; conditions: in vivo; cited from earlier work

With `C[C@@H](Oc1cc(NS(=O)(=O)N2CCC2)nc(SCc2cccc(F)c2F)n1)[C@@H](O)CO` [AZD5069] the “AZD5069 exposure (AUClast and Cmax) at steady state versus dose” value ([1]; AZD5069 monotherapy day 15, 40 to 160 mg BD) was “increased in a dose-dependent manner”, the “AZD5069 exposure (AUClast) with enzalutamide” value ([1]; combination (28 days) versus monotherapy (14 days), particularly at the higher dose levels) was “decreased after the addition of enzalutamide” and the “drug exposure (AUClast and Cmax)” value ([1]; partial responder at AZD5069 80 mg BD) was “comparable to those of patients treated at 160 mg BD”. The “phase II glucose conjugate metabolite in urine” value [2] was < 5.3 % of dose and the NOAEL [3] was 262.5 mg/kg BD.
